From ChEMBL document CHEMBL1201862, “PubChem BioAssay data set” (2004)
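A five-concentration, 48-hour dose response in 96-well plates underlies each endpoint, interpolated linearly between surrounding concentrations. Abbreviation: GI50, concentration required for 50% inhibition of growth.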 Activity calls are given as the source filed them. Rule as the data show it: active = GI50 up to about 1.1 µM and inactive = higher.

Key:
Assay in all cases: inhibition of tumour cell growth, NCI panel, 48 h
NCI-H226 = test system: NCI-H226
SK-MEL-2 = test system: SK-MEL-2
UO-31 = test system: UO-31
HOP-62 = test system: HOP-62
A549 = test system: A549
MDA-MB-435 = test system: MDA-MB-435
SNB-19 = test system: SNB-19
LOX IMVI = test system: LOX IMVI
CAKI-1 = test system: CAKI-1
NCI-H460 = test system: NCI-H460
MDA-N = test system: MDA-N
SK-MEL-5 = test system: SK-MEL-5
Hs-578T = test system: Hs-578T
K562 = test system: K562
Malme-3M = test system: Malme-3M
SR = test system: SR
KM12 = test system: KM12
NCI/ADR-RES = test system: NCI/ADR-RES
UACC-62 = test system: UACC-62
BT-549 = test system: BT-549
SK-MEL-28 = test system: SK-MEL-28
HL-60 = test system: HL-60
PC-3 = test system: PC-3
CCRF-CEM = test system: CCRF-CEM
TK-10 = test system: TK-10
ACHN = test system: ACHN
EKVX = test system: EKVX
OVCAR-5 = test system: OVCAR-5
HOP-92 = test system: HOP-92
SN12C = test system: SN12C
COLO 205 = test system: COLO 205
SW-620 = test system: SW-620
SNB-75 = test system: SNB-75
HCT-116 = test system: HCT-116
MDA-MB-231 = test system: MDA-MB-231
M14 = test system: M14
MOLT-4 = test system: MOLT-4
OVCAR-8 = test system: OVCAR-8
HCT-15 = test system: HCT-15
DU-145 = test system: DU-145
UACC-257 = test system: UACC-257
HT-29 = test system: HT-29
IGROV-1 = test system: IGROV-1
786-0 = test system: 786-0
NCI-H23 = test system: NCI-H23
A498 = test system: A498
OVCAR-4 = test system: OVCAR-4
U-251 = test system: U-251
T47D = test system: T47D
HCC 2998 = test system: HCC 2998
OVCAR-3 = test system: OVCAR-3
RPMI-8226 = test system: RPMI-8226
RXF 393 = test system: RXF 393
MCF7 = test system: MCF7
SF-295 = test system: SF-295
SF-539 = test system: SF-539
SF-268 = test system: SF-268
NCI-H522 = test system: NCI-H522

SMILES: COc1cc(CO)c(CC(=O)NCCCc2ccccc2)cc1OC
- GI50 (NCI-H226): > 100 µM (inactive)
- GI50 (SK-MEL-2): > 100 µM (inactive)
- GI50 (UO-31): > 100 µM (inactive)
- GI50 (HOP-62): > 100 µM (inactive)
- GI50 (A549): > 100 µM (inactive)
- GI50 (MDA-MB-435): 56 µM (inactive)
- GI50 (SNB-19): > 100 µM (inactive)
- GI50 (LOX IMVI): > 100 µM (inactive)
- GI50 (CAKI-1): > 100 µM (inactive)
- GI50 (NCI-H460): > 100 µM (inactive)
- GI50 (MDA-N): 34.1 µM (inactive)
- GI50 (SK-MEL-5): 67.9 µM (inactive)
- GI50 (Hs-578T): > 100 µM (inactive)
- GI50 (K562): > 100 µM (inactive)
- GI50 (Malme-3M): > 100 µM (inactive)
- GI50 (SR): 9.06 µM (inactive)
- GI50 (KM12): 54.6 µM (inactive)
- GI50 (NCI/ADR-RES): 99.1 µM (inactive)
- GI50 (UACC-62): > 100 µM (inactive)
- GI50 (BT-549): > 100 µM (inactive)
- GI50 (SK-MEL-28): > 100 µM (inactive)
- GI50 (HL-60): 38 µM (inactive)
- GI50 (PC-3): > 100 µM (inactive)
- GI50 (CCRF-CEM): > 100 µM (inactive)
- GI50 (TK-10): > 100 µM (inactive)
- GI50 (ACHN): > 100 µM (inactive)
- GI50 (EKVX): > 100 µM (inactive)
- GI50 (OVCAR-5): > 100 µM (inactive)
- GI50 (HOP-92): > 100 µM (inactive)
- GI50 (SN12C): > 100 µM (inactive)
- GI50 (COLO 205): > 100 µM (inactive)
- GI50 (SW-620): > 100 µM (inactive)
- GI50 (SNB-75): > 100 µM (inactive)
- GI50 (HCT-116): > 100 µM (inactive)
- GI50 (MDA-MB-231): > 100 µM (inactive)
- GI50 (M14): > 100 µM (inactive)
- GI50 (MOLT-4): > 100 µM (inactive)
- GI50 (OVCAR-8): > 100 µM (inactive)
- GI50 (HCT-15): > 100 µM
- GI50 (DU-145): > 100 µM (inactive)
- GI50 (UACC-257): > 100 µM (inactive)
- GI50 (HT-29): > 100 µM (inactive)
- GI50 (IGROV-1): > 100 µM (inactive)
- GI50 (786-0): > 100 µM (inactive)
- GI50 (NCI-H23): > 100 µM (inactive)
- GI50 (A498): > 100 µM (inactive)
- GI50 (OVCAR-4): > 100 µM (inactive)
- GI50 (U-251): > 100 µM (inactive)
- GI50 (T47D): 15 µM (inactive)
- GI50 (HCC 2998): > 100 µM (inactive)
- GI50 (OVCAR-3): > 100 µM (inactive)

SMILES: Cc1cc(OP2(=O)NCc3ccncc3O2)ccc1Cl (stereo not given)
- GI50 (NCI-H226): > 100 µM (inactive)
- GI50 (RPMI-8226): > 100 µM (inactive)
- GI50 (SK-MEL-2): > 100 µM (inactive)
- GI50 (UO-31): > 100 µM (inactive)
- GI50 (HOP-62): > 100 µM (inactive)
- GI50 (RXF 393): > 100 µM (inactive)
- GI50 (A549): > 100 µM (inactive)
- GI50 (MDA-MB-435): > 100 µM (inactive)
- GI50 (SNB-19): > 100 µM (inactive)
- GI50 (LOX IMVI): > 100 µM (inactive)
- GI50 (CAKI-1): > 100 µM (inactive)
- GI50 (NCI-H460): > 100 µM (inactive)
- GI50 (MDA-N): > 100 µM (inactive)
- GI50 (SK-MEL-5): > 100 µM (inactive)
- GI50 (K562): > 100 µM (inactive)
- GI50 (SR): > 100 µM (inactive)
- GI50 (KM12): > 100 µM (inactive)
- GI50 (NCI/ADR-RES): > 100 µM (inactive)
- GI50 (UACC-62): > 100 µM (inactive)
- GI50 (MCF7): > 100 µM (inactive)
- GI50 (SF-295): > 100 µM (inactive)
- GI50 (BT-549): > 100 µM (inactive)
- GI50 (SK-MEL-28): > 100 µM (inactive)
- GI50 (PC-3): > 100 µM (inactive)
- GI50 (CCRF-CEM): 44.5 µM (inactive)
- GI50 (ACHN): > 100 µM (inactive)
- GI50 (EKVX): > 100 µM (inactive)
- GI50 (OVCAR-5): > 100 µM (inactive)
- GI50 (HOP-92): > 100 µM (inactive)
- GI50 (SN12C): > 100 µM (inactive)
- GI50 (COLO 205): > 100 µM (inactive)
- GI50 (SW-620): > 100 µM (inactive)
- GI50 (SNB-75): > 100 µM (inactive)
- GI50 (HCT-116): > 100 µM (inactive)
- GI50 (MDA-MB-231): > 100 µM (inactive)
- GI50 (M14): > 100 µM (inactive)
- GI50 (MOLT-4): > 100 µM (inactive)
- GI50 (OVCAR-8): > 100 µM (inactive)
- GI50 (HCT-15): > 100 µM
- GI50 (DU-145): > 100 µM (inactive)
- GI50 (UACC-257): > 100 µM (inactive)
- GI50 (HT-29): > 100 µM (inactive)
- GI50 (IGROV-1): > 100 µM (inactive)
- GI50 (786-0): > 100 µM (inactive)
- GI50 (NCI-H23): > 100 µM (inactive)
- GI50 (A498): > 100 µM (inactive)
- GI50 (OVCAR-4): > 100 µM (inactive)
- GI50 (U-251): > 100 µM (inactive)
- GI50 (T47D): > 100 µM (inactive)
- GI50 (SF-539): > 100 µM (inactive)
- GI50 (HCC 2998): > 100 µM (inactive)
- GI50 (OVCAR-3): > 100 µM (inactive)

SMILES: O=C(O)c1oc(C(=O)O)c(C(=O)O)c1C(=O)O
- GI50 (NCI-H226): 58.9 µM (inactive)
- GI50 (SF-268): > 100 µM (inactive)
- GI50 (RPMI-8226): > 100 µM (inactive)
- GI50 (SK-MEL-2): > 100 µM (inactive)
- GI50 (UO-31): > 100 µM (inactive)
- GI50 (HOP-62): > 100 µM (inactive)
- GI50 (RXF 393): > 100 µM (inactive)
- GI50 (A549): > 100 µM (inactive)
- GI50 (SNB-19): > 100 µM (inactive)
- GI50 (LOX IMVI): > 100 µM (inactive)
- GI50 (CAKI-1): > 100 µM (inactive)
- GI50 (NCI-H460): > 100 µM (inactive)
- GI50 (MDA-N): > 100 µM (inactive)
- GI50 (SK-MEL-5): > 100 µM (inactive)
- GI50 (Hs-578T): > 100 µM (inactive)
- GI50 (K562): > 100 µM (inactive)
- GI50 (Malme-3M): > 100 µM (inactive)
- GI50 (SR): > 100 µM (inactive)
- GI50 (KM12): > 100 µM (inactive)
- GI50 (NCI/ADR-RES): > 100 µM (inactive)
- GI50 (UACC-62): > 100 µM (inactive)
- GI50 (SF-295): > 100 µM (inactive)
- GI50 (BT-549): > 100 µM (inactive)
- GI50 (SK-MEL-28): > 100 µM (inactive)
- GI50 (HL-60): > 100 µM (inactive)
- GI50 (PC-3): > 100 µM (inactive)
- GI50 (CCRF-CEM): > 100 µM (inactive)
- GI50 (TK-10): > 100 µM (inactive)
- GI50 (ACHN): > 100 µM (inactive)
- GI50 (EKVX): > 100 µM (inactive)
- GI50 (OVCAR-5): > 100 µM (inactive)
- GI50 (HOP-92): > 100 µM (inactive)
- GI50 (SN12C): > 100 µM (inactive)
- GI50 (SW-620): > 100 µM (inactive)
- GI50 (HCT-116): > 100 µM (inactive)
- GI50 (MDA-MB-231): > 100 µM (inactive)
- GI50 (M14): > 100 µM (inactive)
- GI50 (MOLT-4): > 100 µM (inactive)
- GI50 (OVCAR-8): > 100 µM (inactive)
- GI50 (HCT-15): > 100 µM
- GI50 (DU-145): > 100 µM (inactive)
- GI50 (UACC-257): > 100 µM (inactive)
- GI50 (HT-29): > 100 µM (inactive)
- GI50 (IGROV-1): > 100 µM (inactive)
- GI50 (786-0): > 100 µM (inactive)
- GI50 (NCI-H23): > 100 µM (inactive)
- GI50 (A498): > 100 µM (inactive)
- GI50 (OVCAR-4): > 100 µM (inactive)
- GI50 (U-251): > 100 µM (inactive)
- GI50 (T47D): > 100 µM (inactive)
- GI50 (NCI-H522): > 100 µM (inactive)
- GI50 (OVCAR-3): > 100 µM (inactive)
